Measurements published in article PMC12481569, “Novltex: A New Class of Antibiotics with Potent Activity against Multidrug-Resistant Bacterial Pathogens–Design, Synthesis, and Biological Evaluation” (Journal of Medicinal Chemistry, 2025).
≈ marks a conversion by molar mass, not a printed value. Positions of bridges follow the written chain, without caps; N, C: chain ends. Non-standard residues stand in square brackets, D forms with d. Residues, ends and D or L forms follow the SMILES beside them. dCha = N[C@H](CC1CCCCC1)C(=O)O

What was measured:
[1] = system: MRSA ATCC 33591; assay: microbe, parasite or virus in culture; type: cell-based, Staphylococcus aureus; conditions: Table 2; MHB with 0.002% polysorbate 80, 37 °C, 24 h, two independent duplicates
Method: (§1) MICs were performed as previously reported 4. For MIC testing all peptides were dissolved in DMSO.
Bacterial cultures were grown overnight on Mueller-Hinton Agar (MHA) plates and adjusted to a final inoculum of 10^5 – 10^6 CFU/mL. 100 µl of ino culum in Meuller -Hinton broth (MHB) was mixed with equal volume of peptides (dissolved in MHB) at 2x their concentration in a 96 well plate . For daptomycin MIC determination, the same protocol was followed with the addition of 50 mg/L calcium chloride to the medium. MIC values were determined in the media contain ing polysorbate 80 (0.002%, v/v) to prevent non -specific adsorption of the peptides to plastic surfaces. The final peptides concentrations ranged from 0.0625 – 32 µg/mL. The 96 well plates were then incubated at 37 °C for 24 h. All the experiments were performed in two independent duplicates and the MIC was determined as the lowest concentration in which no visible growth was observed. […]

[2] = system: MRSA ATCC 33591; assay: Resistance study on agar; type: cell-based, Staphylococcus aureus; conditions: 10× MIC on agar, 24 h, 37 °C
Method: as §1
Bacterial cultures were grown overnight on Mueller-Hinton Agar (MHA) plates and adjusted to a final inoculum of 10^5 – 10^6 CFU/mL. 100 µl of ino culum in Meuller -Hinton broth (MHB) was mixed with equal volume of peptides (dissolved in MHB) at 2x their concentration in a 96 well plate . […]
MIC values were determined in the media contain ing polysorbate 80 (0.002%, v/v) to prevent non -specific adsorption of the peptides to plastic surfaces. The final peptides concentrations ranged from 0.0625 – 32 µg/mL. The 96 well plates were then incubated at 37 °C for 24 h. All the experiments were performed in two independent duplicates and the MIC was determined as the lowest concentration in which no visible growth was observed. […]
VIII. Time dependent killing of bacteria and resistance studies by analogue 12 […]
Resistance evaluations were conducted following previously described protocols 5. […]

[3] = system: human red blood cells (RBCs); assay: Hemolysis assay; type: cell-based; conditions: 1 h, 37 °C, PBS pH 7.0, absorbance 576 nm, 4 donors in duplicate
Method: 4 Cytotoxicity evaluation of analogue 12. Human primary dermal fibroblasts (A), liver cell line HepG2 (B), and kidney cell line HEK293T (C) cells (5 × 10^3 cells/well in 96-well plates) were treated with increasing concentrations of analogue 12 or 1 μM staurosporine (STS, used as a positive toxicity control) for 24 or 48 h, as indicated. Viability of cells was determined using an MTS-based assay. Results (% cell viability) are the mean ± SD of three independent experiments performed in triplicate. (D) Freshly collected human red blood cells (RBCs) were exposed to increasing concentrations of 12 or Triton X-100 (TX), as indicated, for 1 h. Hemolytic activity (% hemolysis) was determined by spectrophotometrically measuring the release of hemoglobin compared to that with TX (used as a positive control). […]
day, cells were treated in triplicates with increasing concentrations of Novltex analogue 12, as indicated in the corresponding figure and the figure legend (Figure 4A-C). […] Cell viability assessed after 24 h or 48 h incubation using an MTS-based CellTiter 96® AQueous One Solution Cell Proliferation Assay (Promega #G3582, Southampton UK) as per manufacturer’s instructions. Absorbance was recorded at 490 nm. Relative cell viability was determined by subtracting the blank (cell culture medium and MTS only) from individual values before normalizing against the untreated control. […]

Structure (SMILES): CC(C)C[C@@H]1NC(=O)[C@H](C)NC(=O)[C@H](NC(=O)[C@H](CO)NC(=O)[C@@H](CCCCN)NC(=O)[C@@H](CC2CCCCC2)NC(=O)[C@@H](N)Cc2ccccc2)[C@H](C)OC(=O)[C@H](CC(C)C)NC1=O [analogue 12, Leu2Cha–Novltex] (H-F[dCha][dK]S[dT]ALL; ester 5-C)
- MIC against MRSA ATCC 33591 [1]: 0.25 µg/mL (≈ 0.273 µM)
- emergence of resistant mutants [2]: No resistant MRSA ATCC 33591 mutants emerged
- hemolysis of human erythrocytes ([3]; 62.5 μg/mL (125× MIC)): low hemolysis
- hemolysis of human erythrocytes ([3]; concentrations up to 31.2 μg/mL): no detectable hemolysis
